# ChEMBL document CHEMBL5058564, “EUbOPEN Chemogenomics Library 2 (Incucyte)” (2022)
# Key:
# Assay type in all cases: toxicity, cell-based
# HEK-293T = experiment: Incucyte cell viability with HEK293T; conditions: human, 10 µM, compound concentration 10 uM
# Fibroblast = experiment: Incucyte cell viability with human fibroblast; conditions: 10 µM, compound concentration 10 uM
# U2OS = experiment: Incucyte cell viability with U2OS; conditions: human, 10 µM, compound concentration 10 uM
# [1] = 0 h, replicate number 1, timepoint 0 hours
# [2] = 0 h, replicate number 2, timepoint 0 hours
# [3] = 12 h, replicate number 1, timepoint 12 hours
# [4] = 12 h, replicate number 2, timepoint 12 hours
# [5] = 18 h, replicate number 1, timepoint 18 hours
# [6] = 18 h, replicate number 2, timepoint 18 hours
# [7] = 24 h, replicate number 1, timepoint 24 hours
# [8] = 24 h, replicate number 2, timepoint 24 hours
# [9] = 6 h, replicate number 2, timepoint 6 hours
# [10] = 6 h, replicate number 1, timepoint 6 hours
# Note: unitless GR value; below 1 slowed growth and below 0 cell loss.
SMILES,Growth Rate (HEK-293T; [1]),Growth Rate (HEK-293T; [2]),Growth Rate (HEK-293T; [3]),Growth Rate (HEK-293T; [4]),Growth Rate (HEK-293T; [5]),Growth Rate (HEK-293T; [6]),Growth Rate (HEK-293T; [7]),Growth Rate (HEK-293T; [8]),Growth Rate (Fibroblast; [1]),Growth Rate (Fibroblast; [2]),Growth Rate (U2OS; [1]),Growth Rate (U2OS; [2]),Growth Rate (U2OS; [5]),Growth Rate (U2OS; [6]),Growth Rate (U2OS; [7]),Growth Rate (U2OS; [8]),Growth Rate (Fibroblast; [10]),Growth Rate (Fibroblast; [7]),Growth Rate (U2OS; [4]),Growth Rate (U2OS; [9]),also measured
O=C1NC(NC23CC4CC(CC(C4)C2)C3)=N/C1=C\c1ccc2ncsc2c1,-0.13,-0.17,0.28,0.24,0.03,0.09,0.01,0.06,-0.85,0.36,-0.86,-1,0.56,0.88,0.62,0.7,,,,,
COc1cccc2c1c(NS(=O)(=O)c1ccc(Cl)s1)nn2Cc1cccc(CNC(=O)C(C)(C)O)c1,0.52,,0.98,0.47,,,0.38,,,0.35,-0.39,-1,,0.83,,0.89,0.17,0.53,0.98,,Growth Rate (HEK-293T; [9]): 0.95; Growth Rate (Fibroblast; [9]): 0.5; Growth Rate (Fibroblast; [3]): 0.41; Growth Rate (Fibroblast; [5]): 0.35; Growth Rate (U2OS; [3]): 0.99
CC(C)[C@H](C(=O)Nc1ccc(C(=O)NO)cc1)c1ccccc1 [AR-42],0.33,0,0.65,0.04,0.28,,0.18,0.23,0.24,0,-0.37,0.37,0.3,0.56,0.39,0.42,,,0.71,0.99,Growth Rate (U2OS; [10]): 0.34; Growth Rate (U2OS; [3]): 0.5
CC#C[C@@H](CC(=O)O)c1ccc(OCc2cccc(-c3ccc(C(F)(F)F)cc3)c2)cc1,,,,0.95,0.65,0.93,0.68,,,,0.35,,0.85,0.96,,,0.66,0.66,0.96,0.69,Growth Rate (HEK-293T; [9]): 0.55; Growth Rate (Fibroblast; [9]): -0.08; Growth Rate (Fibroblast; [4]): 0.23; Growth Rate (Fibroblast; [6]): 0.02; Growth Rate (Fibroblast; [8]): 0.31
CC(C)Cc1ccc([C@@H](C)C(=O)NS(C)(=O)=O)cc1 [REPARIXIN],,0.48,0.78,,0.7,0.83,0.82,,,,-0.7,-1,,0.86,,0.93,0.51,0.06,0.88,0.83,Growth Rate (Fibroblast; [9]): -0.08; Growth Rate (Fibroblast; [3]): 0.63; Growth Rate (Fibroblast; [4]): 0.66; Growth Rate (Fibroblast; [5]): 0.6; Growth Rate (Fibroblast; [6]): 0.65; Growth Rate (Fibroblast; [8]): 0.95
Cc1c(C(=O)NN2CCCCC2)nn(-c2ccc(Cl)cc2Cl)c1-c1ccc(Cl)cc1 [RIMONABANT],0.19,-0.01,,,,,,,,0.97,0.12,-1,,0.98,0.8,,-0.42,0.03,,,Growth Rate (Fibroblast; [9]): -0.46; Growth Rate (Fibroblast; [3]): 0.04; Growth Rate (Fibroblast; [4]): 0; Growth Rate (Fibroblast; [5]): -0.03; Growth Rate (Fibroblast; [6]): 0.53; Growth Rate (Fibroblast; [8]): 0.42
CN(C)CCCOc1ccc(-c2cc(NCCCn3cccn3)nc(S(C)(=O)=O)n2)cc1,,,,,,0.97,,0.97,,0.56,0.2,,0.71,0.82,0.85,,0.86,0.96,,,Growth Rate (HEK-293T; [10]): 0.9; Growth Rate (U2OS; [10]): 0.22
CSCC[C@H](NC(=O)[C@@H]1CCCN1C(=O)CNC(=O)[C@H](CCCCN)NC(=O)[C@H](Cc1cnc[nH]1)NC(=O)[C@H](CO)NC(=O)[C@H](CC(C)C)NC(=O)[C@H](CCCNC(=N)N)NC(=O)[C@@H]1CCCN1C(=O)[C@H](CCCNC(=N)N)NC(=O)[C@@H](N)CCC(N)=O)C(=O)N1CCC[C@H]1C(=O)N[C@@H](Cc1ccccc1)C(=O)O,0.46,0.65,,,0.97,,0.74,,0.13,0.64,,-0.88,,0.91,,0.94,,0.88,,0.73,Growth Rate (Fibroblast; [4]): 0.8
CCOC(=O)Nc1cc(-c2ccc(C)c(NS(C)(=O)=O)c2)nn2c(C)nnc12,0.65,0.66,0.95,,0.79,0.98,0.46,0.76,,0.22,0.25,,0.82,0.95,0.83,0.84,-0.16,,0.95,0.59,Growth Rate (Fibroblast; [8]): 0.95; Growth Rate (U2OS; [10]): 0.15; Growth Rate (U2OS; [3]): 0.56
CC[C@@]1(O)C(=O)OCc2c1cc1n(c2=O)Cc2cc3ccccc3nc2-1 [CAMPTOTHECIN],-0.84,0.83,0.88,,,,0.65,0.41,-0.02,0.11,-0.11,-0.34,0.59,0.33,0.48,0.2,1,,0.64,0.82,Growth Rate (HEK-293T; [10]): -0.29; Growth Rate (U2OS; [10]): 0.7; Growth Rate (U2OS; [3]): 0.75
COCCN1CCC(c2cc(CN(C)C(=O)c3cccc(Oc4ccccc4)c3)ccn2)CC1,,0.76,0.83,0.93,0.81,0.92,1,0.89,0.94,,-0.65,-0.76,0.67,0.97,0.93,,0.77,,0.87,0.6,Growth Rate (HEK-293T; [10]): 0.44; Growth Rate (U2OS; [10]): 0.63; Growth Rate (U2OS; [3]): 0.74
